Data as given in patent US6906098B2, “Mixed steroidal 1,2,4,5-tetraoxane compounds and methods of making and using thereof” (priority 2002, dated 2005).
In brackets after ≈: the same amount, converted by molar mass. Several values for one entry are separate records, joined by “and”; a condition that tells them apart may be missing. Equal values may be shown once. Read-outs that look alike come from different tables or passages of the source.

Tests used:
[1] = test system: Mycobacterium tuberculosis H37Rv (ATCC 27294); assay: Primary screen, Microplate Alamar Blue Assay (MABA), percent inhibition; type: cell-based; settings: primary screening at 6.25 μg/ml; for inhibition at 6.25 µg/mL: Mycobacterium tuberculosis
Protocol: (§1) The activity of the compounds of the present invention against Mycobacterium tuberculosis was determined using the following assays conducted by the National Institute of Allergy and Infectious Diseases (NIAID) supports a TB drug acquisition and screening program, the TAACF.
To determine the percent inhibition the following assay was conducted. Primary screening was conducted at 6.25 μg/ml (or the molar equivalent of highest molecular weight compound in a given series of congeners) against Mycobacterium tuberculosis H37Rv (ATCC 27294) in BACTEC 12B medium using the Microplate Alamar Blue Assay (MABA). See Collins, L. and S. G. Franzblau. 1997. Microplate alamar blue assay versus BACTEC 460 system for high-throughput screening of compounds against Mycobacterium tuberculosis and Mycobacterium avium. Antimicrob Agents Chemother 41:1004-9, which is herein incorporated by reference.
Minimum compound requirements: 1.0 mg.

[2] = test system: Plasmodium falciparum chloroquine-resistant strain W2; assay: microbe, parasite or virus in culture; type: cell-based; settings: for IC50: Plasmodium falciparum, W2, 66 h; for Strain W2 IC50: growth inhibition, chloroquine-resistant strain W2, 66 h incubation
[3] = test system: Plasmodium falciparum chloroquine-susceptible strain D6; assay: In vitro antimalarial drug susceptibility assay (radiolabeled hypoxanthine incorporation), strain D6; type: cell-based; settings: for IC50: Plasmodium falciparum, D6, 66 h; for Strain D6 IC50: growth inhibition, chloroquine-susceptible strain D6, 66 h incubation
[4] = test system: D6 and W2 P. falciparum clones; type: cell-based, Plasmodium falciparum; settings: IC50 (W2)/IC50 (D6) ratio
M. tuberculosis H37Rv = assay: Minimum inhibitory concentration (MIC) in the MABA; type: cell-based, Mycobacterium tuberculosis
Protocol: as §1
2. Minimum Inhibitory Concentration (MIC)
The MIC is defined as the lowest concentration effecting a reduction in fluorescence of 90% relative to controls. Minimum compound requirements: 1.0 mg.

[5] = Table 5, Alamar assay, read-out: % Inhib
[6] = read-out: Strain W2 IC50, growth inhibition, chloroquine-resistant strain W2, 66 h incubation
[7] = read-out: Strain D6 IC50, growth inhibition, chloroquine-susceptible strain D6, 66 h incubation
[8] = Mycobacterium tuberculosis, H37RV, Table 5, Alamar assay, M. tuberculosis H37Rv, read-out: MIC
[9] = Table 3, H37Rv, read-out: Inhibition (%)
[10] = Mycobacterium tuberculosis, H37RV, Table 3, H37Rv, read-out: MIC

Row | Molecule | inhibition at 6.25 µg/mL [1, 5] [%] | IC50 [3, 7] [µg/mL] | Resistance Index [4] | MIC (M. tuberculosis H37Rv; [8]) [µg/mL] | Strain W2 IC50 [2] [µg/mL] | Strain D6 IC50 [3] [µg/mL] | further results
1 | CCCNC(=O)CCC(C)[C@H]1CCC2C3C(C[C@H](OC(C)=O)[C@@]21C)[C@@]1(C)CCC2(C[C@H]1C[C@H]3OC(C)=O)OOC1(CCCCC1C)OO2 (stereo partly drawn) [16/1C25, N-(n-Propyl)-7α,12α-diacetoxy-5β-cholan-24-amide-3-spiro-6′-(1′,2′,4′,5′-tetraoxacyclohexane)-3′-spiro-1″-(2″-methyl)cyclohexane] | 87 | 0.00889 (≈ 0.0132 µM) | 0.71 | > 6.25 |  |  | IC50 [2, 6]: 0.00628 µg/mL (≈ 0.00929 µM)
2 | COC(=O)CCC(C)[C@H]1CCC2C3C(C[C@H](OC(C)=O)[C@@]21C)[C@@]1(C)CCC2(C[C@H]1C[C@H]3OC(C)=O)OOC1(CC(C)CCC1C(C)C)OO2 (stereo partly drawn) [8f/1B10, Methyl 7α,12α-diacetoxy-5β-cholan-24-oate-3-spiro-6′-(1′,2′,4′,5′-tetraoxacyclohexane)-3′-spiro-1″-(−)-menthane] | 0 | 0.107 (≈ 0.154 µM) | 0.47 | > 6.25 |  |  | IC50 [2, 6]: 0.0506 µg/mL (≈ 0.0732 µM)
3 | Methyl 7α,12α-diacetoxy-5β-cholan-24-oate-3-spiro-6′-(1′,2′,4′,5′-tetraoxacyclohexane)-3′-spiro-1″-((4″R or S)- and (4″S or R)-ethoxycarbonyl)cyclohexane [Compound 1B12b] |  |  | 1.77 |  | 0.05492 | 0.03101 | 
4 | CCCNC(=O)CCC(C)[C@H]1CCC2C3C(C[C@H](OC(C)=O)[C@@]21C)[C@@]1(C)CCC2(C[C@H]1C[C@H]3OC(C)=O)OOC1(CCC(c3ccccc3)CC1)OO2 (single isomer, unassigned) [Compound 1C48, N-(n-Propyl)-7α,12α-Diacetoxy-5β-cholan-24-amide-3-spiro-6′-(1′,2′,4′,5′-tetraoxacyclohexane)-3′-spiro-1″-((4″R or S)-phenyl)cyclohexane] | 46 |  | 1.02 | > 6.25 | 0.00672 | 0.00659 | inhibition at 6.25 µg/mL [1, 9]: 46%; MIC (M. tuberculosis H37Rv; [10]): > 6.25 µg/mL
5 | COC(=O)CCC(C)[C@H]1CCC2C3C(C[C@H](OC(C)=O)[C@@]21C)[C@@]1(C)CCC2(C[C@H]1C[C@H]3OC(C)=O)OOC1(CCC(C)CC1)OO2 (mixture of isomers) [8g/1B08a, Methyl 7α,12α-diacetoxy-5β-cholan-24-oate-3-spiro-6′-(1′,2′,4′,5′-tetraoxacyclohexane)-3′-spiro-1″-((4″R)- and (4″S)-methyl)cyclohexane] | 29 |  | 0.50 | > 6.25 | 0.00327 | 0.00648 | inhibition at 6.25 µg/mL [1, 9]: 29%; MIC (M. tuberculosis H37Rv; [10]): > 6.25 µg/mL and > 9.63 µM
6 | CCC1CCC2(CC1)OOC1(CC[C@]3(C)C4C[C@H](OC(C)=O)[C@@]5(C)C(CC[C@@H]5C(C)CCC(N)=O)C4[C@H](OC(C)=O)C[C@@H]3C1)OO2 (single isomer, unassigned) [29/1C40, 7α,12α-Diacetoxy-5β-cholan-24-amide-3-spiro-6′-(1′,2′,4′,5′-tetraoxacyclohexane)-3′-spiro-1″-((4″S or R)-ethyl)cyclohexane] |  |  | 0.40 |  | 0.00811 | 0.02012 | % Inhib ([1]; Table 5, Alamar assay): 100%; MIC (M. tuberculosis H37Rv; Table 5, Alamar assay, M. tuberculosis H37Rv): 3.13 µg/mL (≈ 4.83 µM)
7 | CCN(CC)CCCC(C)Nc1ccnc2cc(Cl)ccc12 (centres unmarked) [Chloroquine, reference compound] |  |  |  |  |  |  | IC50 ([2]; read-out: Strain W2 IC50): 0.0883 µg/mL (≈ 0.276 µM); IC50 ([3]; read-out: Strain D6 IC50): 0.00371 µg/mL (≈ 0.0116 µM)
8 | Methyl 7α,12α-diacetoxy-5β-cholan-24-oate-3-spiro-6′-(1′,2′,4′,5′-tetraoxacyclohexane)-3′-spiro-1″-((4″R or S)- and (4″S or R)-ethoxycarbonyl)cyclohexane [Compound 1B12a] |  |  | 1.87 |  | 0.01256 | 0.00672 | 
9 | OC(c1cc(C(F)(F)F)nc2c(C(F)(F)F)cccc12)C1CCCCN1 (centres unmarked) [Mefloquine, reference compound] |  | 0.0106 (≈ 0.0281 µM) |  |  |  |  | 
